Experiments:
human CXCR4 = target: T1, human CXCR4 (Homo sapiens, UniProt P61073); assay: Ca2+ assay: CXCR4-antagonizing activity; type: cell-based
T1 construct: expressed in transfected cells; host or cells: mouse pre-B cell line 300-19
Protocol: 2.2. Ca^2+− Assay: CXCR4-Antagonizing Activity of the Peptides.
Increases in intracellular calcium were monitored using a Flexstation 384 (Molecular Devices, Sunnyvale, Calif.) to assay the peptides for CXCR4 antagonism in a mouse pre-B cell line 300-19 stably transfected with human CXCR4 [see references 1, 2 and 3, below]. The cells were batch loaded with the Calcium 3 Assay kit (Molecular Devices) in assay buffer (Hanks Balanced salt solution, HBSS, 20 mM HEPES, pH 7.4, 0.1% BSA) for 1 h at room temperature and then 200,000 labeled cells were dispensed into black 96 well assays plates (Costar No. 3603). A 20-fold concentrated solution of peptide in assay buffer was added to the cells and the whole plate was centrifuged to settle the cells to the bottom of the wells. Calcium mobilization induced by 10 nM stromal-derived factor-1 (SDF-1) was measured in the Flexstation 384 (excitation, 485 […]) for 90 seconds. A maximal change in fluorescence response above baseline was used to calculate antagonist activity. The data for dose response curves (antagonist concentration versus % maximum response) were fitted to a four parameter logistic equation using SoftmaxPro 4.6 (Molecular Devices), from which IC50% values were calculated.

[1] = Cytotoxicity assay (MTT reduction); type: cell-based; settings: human, HELA cells (Acc57), peptides at 12.5, 25 and 50 μM, trend line, read-out: Cyto-toxicity LC50/GI50 Hela cells
Protocol: The cytotoxicity of the peptides to HELA cells (Acc57) and COS-7 cells (CRL-1651) was determined using the MTT reduction assay [see ref. 6 and 7, below]. Briefly the method was as follows: HELA cells and COS-7 cells were seeded at 7.0×10^3 and, respectively, 4.5×10^3 cells per well and grown in 96-well microtiter plates for 24 hours at 37° C. at 5% CO2. At this point, time zero (Tz) was determined by MTT reduction (see below). The supernatant of the remaining wells was discarded, and fresh medium and the peptides in serial dilutions of 12.5, 25 and 50 μM were pipetted into the wells. Each peptide concentration was assayed in triplicate. Incubation of the cells was continued for 48 hours at 37° C. at 5% CO2. Wells were then washed once with PBS and subsequently 100 μl MTT reagent (0.5 mg/mL in medium RPMI1640 and, respectively, DMEM) was added to the wells. This was incubated at 37° C. for 2 hours and subsequently the medium was aspirated and 100 μl isopropanol was added to each well. The absorbance at 595 nm of the solubilized product was measured (OD595peptide). For each concentration averages were calculated from triplicates. The percentage of growth was calculated as follows: (OD595peptide−OD595Tz−OD595Empty well)/(OD595Tz−OD595Empty well)×100% and was plotted for each peptide concentration. […]

[2] = system: human red blood cells (hRBC); assay: Hemolysis; type: cell-based; settings: 100 μM peptide, 20% v/v hRBC, 1 hour at 37° C.; percent hemolysis per method
Protocol: The peptides were tested for their hemolytic activity against human red blood cells (hRBC). Fresh hRBC were washed three times with phosphate buffered saline (PBS) by centrifugation for 10 min at 2000×g. Peptides at a concentration of 100 μM were incubated with 20% v/v hRBC for 1 hour at 37° C. The final erythrocyte concentration was approximately 0.9×10^9 cells per ml. A value of 0% resp. 100% cell lysis was determined by incubation of the hRBC in the presence of PBS alone and respectively 0.1% Triton X-100 in H2O. The samples were centrifuged and the supernatant was 20-fold diluted in PBS buffer and the optical density (OD) of the sample at […] was measured. The 100% lyses value (OD540H2O) gave an OD540 of approximately 1.3-1.8. Percent hemolysis was calculated as follows: (OD540peptide/OD540H2O)×100%.

[3] = Plasma stability, human plasma; type: in vitro ADME; settings: read-out: Stability human Plasma t1/2
[4] = Plasma stability, rat plasma; type: in vitro ADME; settings: read-out: Stability rat Plasma t1/2
[5] = Maximum tolerated dose in mice; type: in vivo, mouse; settings: mouse, i.v.
Protocol: 3.1. Maximum Tolerated Dose in Mice
a) The compound of Example 1, dispersed in Water for Injection or 0.9% physiological saline), was administered, in the preliminary study, by i.v. injection at dose levels of 35, 50, 70, 85, 100, 150, 250 or 500 mg/kg to groups consisting of one male and one female mouse (Crl:CD1(ICR)). In addition, two groups comprising two male and two female mice received dose levels of 90 and 100 mg/kg, respectively, and the 50 mg/kg dose level was repeated in a group comprising one male and one female.
b) Maximum tolerated dose studies (MTD) carried out with the compound of Example 2 using CD1 mice (3 mice/group) and was performed using i.v, ip and sc. administration.

[6] = 14-day intravenous injection toxicity and toxicokinetic study in mice; type: in vivo, mouse
Protocol: 3.2 Repeated Toxicity Studies in Mice
The toxicity and toxicokinetics of the compound of Example 1 was investigated following daily i.v. injection in the mouse for at least 14 days. Groups of 12 male and 12 female Crl:CD1(ICR) mice received dose preparations containing control article (50 mM sodium dihydrogen orthophosphate buffer containing 0.9% w/v sodium chloride) or 8, 24, or 40 mg/kg/day POL6326 at a dose volume of 5 mL/kg. Satellite groups of 24 animals per sex per group were included at each dose level. Assessment of toxicity was based on mortality, clinical signs, body weights, food consumption, ophthalmic examinations, clinical and anatomic pathology, and toxicokinetic evaluations.

[7] = system: hematopoietic progenitors (CFU-GM); assay: Stem cell mobilisation, mice model (CFU-GM); type: in vivo, mouse
Description: The aim of the study was to evaluate the ability of the compound of Example 1 and Example 2 to mobilize hematopoietic progenitors from mouse bone marrow to peripheral blood using in-vitro hematopoietic colony assays. In humans, accurate information about progenitor cell mobilization is provided by the colony forming unit granulocyte-monocyte (CFU-GM) assay or by determining the abundance of CD34(+) cells by FACS analysis (see ref. 10 below). In mice, CD34 is not a useful marker for stem cells; instead the CFU-GM is more commonly used (see ref. 11 below).
In order to assess the ability of the compounds of Example 1 and Example 2 to mobilize murine stem cells (CFU-GM) C3H/HeJ female mice (Jackson Laboratory) were injected s.c. with 5 mg/k, of the compounds of Example 1 and of Example 2 and as reference AMD3100 (Broxmeyer, et al, J Exp Med 201, 1307-1318), (currently undergoing Phase III clinical trials) for stem cell mobilisation. Peripheral blood samples from 5 animals per test group were collected at each time point and nucleated cell counts performed as standard assays.

[8] = system: CD34(+) hematopoietic cells; assay: Stem cell mobilisation, monkey model (CD34(+) cells by FACS); type: in vivo, cynomolgus monkeys (Macaca fascicularis); settings: cynomolgus monkeys, slow bolus i.v. injection
Protocol: An assessment of mobilization of peripheral-blood hematopoietic stem cells in cynomolgus monkeys (Macaca fascicularis) was performed. The compound of Example 1 was administered to 4 monkeys (2 male and 2 female) as a slow bolus i.v. injection over 2 minutes and CD34(+) cells were determined by FACS analysis. Toxicokinetic blood sampling was also performed.

[9] = mouse, 8, 24 or 40 mg/kg/day i.v.

T1 sequence (P61073 whole entry): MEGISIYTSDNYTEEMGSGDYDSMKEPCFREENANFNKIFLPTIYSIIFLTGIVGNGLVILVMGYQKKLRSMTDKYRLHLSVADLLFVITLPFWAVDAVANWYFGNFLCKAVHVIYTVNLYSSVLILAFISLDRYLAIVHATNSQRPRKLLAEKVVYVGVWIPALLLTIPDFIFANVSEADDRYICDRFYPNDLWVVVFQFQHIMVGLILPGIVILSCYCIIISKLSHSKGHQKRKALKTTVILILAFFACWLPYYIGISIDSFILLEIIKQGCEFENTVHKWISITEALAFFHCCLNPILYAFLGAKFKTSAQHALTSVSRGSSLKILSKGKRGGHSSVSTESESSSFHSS

C[C@@H]1NC(=O)[C@H](Cc2c[nH]cn2)NC(=O)[C@H](Cc2ccc(O)cc2)NC(=O)[C@@H]2CCCN2C(=O)[C@H]2CCCN2C(=O)[C@H](CCCCN)NC(=O)[C@H](CCC(N)=O)NC(=O)[C@H](Cc2ccc(O)cc2)NC(=O)[C@@H]2CSSC[C@H](NC1=O)C(=O)N[C@@H](CO)C(=O)N[C@@H](C)C(=O)N1CCC[C@@H]1C(=O)N[C@@H](CCN)C(=O)N[C@@H](CCCNC(=N)N)C(=O)N[C@@H](Cc1ccc(O)cc1)C(=O)N2 [Example 1]
IC50 (human CXCR4): 5.5 nM | CC50 at 48 h [1]: > 50000 nM | Hemo-lysis at 100 μM [2]: 0.6 | half-life at 10 µM [3]: > 4 h | half-life at 10 µM [4]: > 4 h | acute minimum lethal intravenous dose level [5]: exceed 90 mg/kg | NOAEL at 14 days ([6]; both sexes, Crl:CD1(ICR), in vivo, iv, mouse, daily i.v. dosing, 14 days, read-out: NOAEL level): 40 mg/kg/day | white blood cell and absolute lymphocyte counts ([6]; females given 40 mg/kg/day): mildly higher | clinical chemistry results [6, 9]: unaffected | effect on body weight, body weight change, food consumption, ophthalmic observations [6, 9]: no notable effect | test article-related gross lesions [6, 9]: No test article-related gross lesions were recorded | test article-related microscopic lesions [6, 9]: No test article-related microscopic lesions were observed | return of CFU-GM to baseline levels, time post administration ([7]; C3H/HeJ mice, 5 mg/kg s.c.): 6 h | time of maximal effect on CFU-GM blood cell numbers ([7]; C3H/HeJ mice, 5 mg/kg s.c.): 120 min | dose of peak level increase in release of CFU-GM (dose response) ([7]; mice, follow up dose response study): 5 mg/kg | duration of mobilisation [8]: transient | mobilization of CD34(+) hematopoietic cells [8]: induced mobilization of CD34(+) hematopoietic cells | time of peak level of mobilization [8]: peak level at two hours

c1cc(CN2CCCNCCNCCCNCC2)ccc1CN1CCCNCCNCCCNCC1 [AMD3100, reference compound]
effect on CFU-GM blood cell numbers / progenitors over time ([7]; C3H/HeJ mice, 5 mg/kg s.c., compared to control mice): increase in the frequency and number of progenitors at 30 and 60 minutes

Source: US11421001B2, “Template-fixed peptidomimetics” (UNIVERSITAET ZUERICH, priority 2007, dated 2022)
